# Assay results published in patent publication US9409880B2, “Modulators of TLR3/dsRNA complex and uses thereof” (The Regents of the University of Colorado, a body corporate, priority 2011, dated 2016).
# Target: T1, TLR3 (Mus musculus, UniProt Q99MB1)
# T1 construct: endogenous in cells; host or cells: RAW 264.7
# T1 sequence (Q99MB1 26-905): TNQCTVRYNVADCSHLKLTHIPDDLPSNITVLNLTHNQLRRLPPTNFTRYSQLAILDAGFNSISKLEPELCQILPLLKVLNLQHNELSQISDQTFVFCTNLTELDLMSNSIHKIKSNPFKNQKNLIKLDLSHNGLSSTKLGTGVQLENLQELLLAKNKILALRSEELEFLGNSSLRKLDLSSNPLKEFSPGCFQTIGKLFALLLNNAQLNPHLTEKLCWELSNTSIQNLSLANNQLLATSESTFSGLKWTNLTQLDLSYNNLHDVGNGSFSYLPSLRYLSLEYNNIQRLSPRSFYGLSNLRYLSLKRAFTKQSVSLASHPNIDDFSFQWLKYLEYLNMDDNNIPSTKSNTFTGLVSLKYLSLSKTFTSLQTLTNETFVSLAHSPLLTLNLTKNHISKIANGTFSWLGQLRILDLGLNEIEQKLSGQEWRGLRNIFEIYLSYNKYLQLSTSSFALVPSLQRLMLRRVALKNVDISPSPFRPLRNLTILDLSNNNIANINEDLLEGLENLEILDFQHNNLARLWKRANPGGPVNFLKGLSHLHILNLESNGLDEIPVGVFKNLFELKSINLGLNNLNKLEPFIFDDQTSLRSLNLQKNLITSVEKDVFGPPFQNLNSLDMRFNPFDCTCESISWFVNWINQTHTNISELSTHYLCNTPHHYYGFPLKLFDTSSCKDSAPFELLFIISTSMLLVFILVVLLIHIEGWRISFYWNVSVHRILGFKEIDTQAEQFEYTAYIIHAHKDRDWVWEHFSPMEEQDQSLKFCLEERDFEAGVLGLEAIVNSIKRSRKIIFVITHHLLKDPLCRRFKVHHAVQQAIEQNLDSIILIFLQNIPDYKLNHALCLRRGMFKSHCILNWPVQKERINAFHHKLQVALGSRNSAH
# Test: In vitro TLR3 inhibition assay: Poly IC-induced NO production in RAW 264.7 cells
# Format: cell-based
# Settings: 6a vs 4a
# Text: The initial hits (Figure A) were first evaluated using the present inventors' previously established high-throughput cell assay of TLR3 activation. See, for example, ACS Med. Chem. Lett. 2010, 1, 194 and Bioorg. Med. Chem. Lett., 2010, 20, 5411. Poly IC (Polyriboinosinic:polyribocytidylic acid) has been reported to selectively activate TLR3 signaling, resulting in the activation of nitric oxide synthase and the production nitric oxide (NO) in RAW 264.7 macrophage cells. The NO level was monitored as an indicator of Poly IC-induced TLR3 activation to evaluate the drug's inhibitory activity.
# RAW 264.7 (Mouse leukaemic monocyte macrophage cell line) cells were grown in RPMI 1640 medium, supplemented with 10% FBS, penicillin (100 U/mL) and streptomycin ([…]). RAW cells were then planted in 96-well plates at 100,000 cells per well and grown for 24 h in the media descried previously at 37° C. in a 5% CO2 humidified incubator. After 24 h, non-adherent cells and media were removed and replaced with fresh RPMI 1640 medium (only RPMI). The adherent macrophages were treated with high molecular weight polyinosine-polycytidylic acid (Poly IC) (10 μg/mL) (Invivogen), an agonist of TLR3, and then added different concentrates of potential inhibitor. Two rows were only treated with Poly IC as an control. Plates were then incubated for an additional 24 h. Following incubation 100 μL of media was removed and added to flat black 96-well microfluor plates (Thermo Scientific, MA, USA). To each well, 10 μL of 2,3-diaminonaphthalene (0.05 mg/mL in 0.62 M aqueous HCl solution) was added and incubated for 15 min in the dark. The reaction was quenched by addition of 5 μL of a 3 M aqueous NaOH solution and the plate was read on Beckman Coulter DTX880 reader (Beckman Coulter, Calif., USA) with excitation at 365 nm and emission at 450 nm. The nitrite (a stable metabolite of nitric oxide) concentration was determined from a nitrite standard curve. The inhibition rate (%) of NO release was determined using the following formula: Inhibition (%)=[Poly IC(OD450)−Compounds (OD450)]/[Poly IC(OD450)−Control (OD450)]×100. The IC50 values for both inhibition and cytotoxicity were determined graphically using software Origin v7.5.
row,decrease in potency,Structure (SMILES)
1,10 fold,"COc1ccc2c(Cl)c(C(=O)N[C@H](Cc3ccccc3)C(=O)O)sc2c1 [Compound 6a, (R)-2-(3-chloro-6-methoxybenzo[b]thiophene-2-carboxamido)-3-phenylpropanoic acid]"

# Same assay, conditions: Poly IC-induced TLR3 activation, cell assay
row,IC50,Structure (SMILES)
1,154 ± 5.9 µM,"O=C(N[C@H](Cc1ccccc1)C(=O)O)c1cc2c(s1)CCCCC2 [Compound T5626448, reference compound]"
2,145 ± 3.7 µM,"O=C(O)[C@@H](Cc1ccccc1)NS(=O)(=O)c1ccccc1F [Compound T5260630, reference compound]"

# Same assay, conditions: whole cell inhibitory activity; Poly IC-induced NO, RAW 264.7; average ± SD, at least three independent tests
row,IC50,Structure (SMILES)
1,70.7 ± 2.1 µM,"O=C(N[C@H](Cc1ccccc1)C(=O)O)c1sc2cc(F)c(F)cc2c1Cl [Compound 8a, (R)-2-(3-chloro-5,6-difluorobenzo[b]thiophene-2-carboxamido)-3-phenylpropanoic acid]"
2,> 100 µM,O=C(N[C@@H](Cc1ccc(O)cc1)C(=O)O)c1cc2ccccc2s1 [Compound 9b]
3,154 ± 6 µM,"O=C(N[C@H](Cc1ccccc1)C(=O)O)c1cc2c(s1)CCCCC2 [Compound T5626448, reference compound]"
4,84.7 ± 2.4 µM,"O=C(N[C@@H](Cc1ccc(O)cc1)C(=O)O)c1sc2cc(F)ccc2c1Cl [Compound 7b, (S)-2-(3-chloro-6-fluorobenzo[b]thiophene-2-carboxamido)-3-(4-hydroxyphenyl)propanoic acid]"
5,> 100 µM,"O=C(N[C@H](Cc1ccccc1)C(=O)O)c1cc2cc(F)ccc2s1 [Compound 10a, (R)-2-(5-fluorobenzo[b]thiophene-2-carboxamido)-3-phenylpropanoic acid]"
6,> 100 µM,"O=C(N[C@@H](Cc1ccccc1)C(=O)O)c1cc2ccc(F)cc2s1 [Compound 13b, (S)-2-(6-fluorobenzo[b]thiophene-2-carboxamido)-3-phenylpropanoic acid]"
7,36.7 ± 3.9 µM,"COc1ccc2c(Cl)c(C(=O)N[C@H](Cc3ccccc3)C(=O)O)sc2c1 [Compound 6a, (R)-2-(3-chloro-6-methoxybenzo[b]thiophene-2-carboxamido)-3-phenylpropanoic acid]"
8,21.9 ± 0.7 µM,"O=C(N[C@@H](Cc1ccccc1)C(=O)O)c1sc2cc(F)ccc2c1Cl [Compound 4b, (S)-2-(3-chloro-6-fluorobenzo[b]thiophene-2-carboxamido)-3-phenylpropanoic acid]"
9,56.4 ± 5.2 µM,"O=C(N[C@H](Cc1ccc(O)cc1)C(=O)O)c1sc2cc(F)ccc2c1Cl [Compound 7a, (R)-2-(3-chloro-6-fluorobenzo[b]thiophene-2-carboxamido)-3-(4-hydroxyphenyl)propanoic acid]"
10,> 100 µM,"O=C(N[C@@H](Cc1ccccc1)C(=O)O)c1cc2cc(F)ccc2s1 [Compound 10b, (S)-2-(5-fluorobenzo[b]thiophene-2-carboxamido)-3-phenylpropanoic acid]"
11,145 ± 4 µM,"O=C(O)[C@@H](Cc1ccccc1)NS(=O)(=O)c1ccccc1F [Compound T5260630, reference compound]"
12,> 100 µM,"O=C(N[C@H](Cc1ccccc1)C(=O)O)c1sc2ccccc2c1Cl [Compound 11a, (R)-2-(3-chlorobenzo[b]thiophene-2-carboxamido)-3-phenylpropanoic acid]"
13,54.1 ± 5.7 µM,"O=C(N[C@@H](Cc1ccccc1)C(=O)O)c1sc2ccc(F)cc2c1Cl [Compound 12b, (S)-2-(3-chloro-5-fluorobenzo[b]thiophene-2-carboxamido)-3-phenylpropanoic acid]"
14,> 100 µM,"O=C(N[C@@H](Cc1ccccc1)C(=O)O)c1sc2ccccc2c1Cl [Compound 11b, (S)-2-(3-chlorobenzo[b]thiophene-2-carboxamido)-3-phenylpropanoic acid]"
15,> 155 µM,"O=C(N[C@@H](Cc1ccccc1)C(=O)O)c1cc2ccccc2s1 [Compound 1b, (S)-2-(benzo[b]thiophene-2-carboxamido)-3-phenylpropanoic acid]"
16,> 100 µM,"O=C(N[C@H](Cc1ccc(O)cc1)C(=O)O)c1cc2ccccc2s1 [Compound 9a, (R)-2-(benzo[b]thiophene-2-carboxamido)-3-(4-hydroxyphenyl)propanoic acid]"
17,5.6 ± 0.32 µM,"O=C(N[C@H](Cc1ccccc1)C(=O)O)c1sc2cc(Cl)ccc2c1Cl [Compound 3a, (R)-2-(3,6-dichlorobenzo[b]thiophene-2-carboxamido)-3-phenylpropanoic acid]"
18,> 100 µM,"O=C(N[C@H](Cc1ccccc1)C(=O)O)c1cc2ccc(F)cc2s1 [Compound 13a, (R)-2-(6-fluorobenzo[b]thiophene-2-carboxamido)-3-phenylpropanoic acid]"
19,31.7 ± 0.7 µM,"Cc1ccc2c(Cl)c(C(=O)N[C@@H](Cc3ccccc3)C(=O)O)sc2c1 [Compound 2b, (S)-2-(3-chloro-6-methylbenzo[b]thiophene-2-carboxamido)-3-phenylpropanoic acid]"
20,11.8 ± 1.3 µM,"Cc1ccc2c(Cl)c(C(=O)N[C@H](Cc3ccccc3)C(=O)O)sc2c1 [Compound 2a, (R)-2-(3-chloro-6-methylbenzo[b]thiophene-2-carboxamido)-3-phenylpropanoic acid]"
21,> 100 µM,"COc1ccc2c(Cl)c(C(=O)N[C@@H](Cc3ccccc3)C(=O)O)sc2c1 [Compound 6b, (S)-2-(3-chloro-6-methoxybenzo[b]thiophene-2-carboxamido)-3-phenylpropanoic acid]"
22,6.28 ± 1.05 µM,"O=C(N[C@H](Cc1ccccc1)C(=O)O)c1sc2cc(C(F)(F)F)ccc2c1Cl [Compound 5a, (R)-2-(3-chloro-6-(trifluoromethyl)benzo[b]thiophene-2-carboxamido)-3-phenylpropanoic acid]"

# Same assay, conditions: whole cell inhibitory activity; second part of Table 1 (R5/R6 series)
row,IC50,Structure (SMILES)
1,> 100 µM,"O=C(O)[C@@H](Cc1ccccc1)NS(=O)(=O)c1cccc(F)c1 [Compound 15a, (R)-2-(3-fluorophenylsulfonamido)-3-phenylpropanoic acid]"
2,> 100 µM,"O=C(O)[C@@H](Cc1ccc(O)cc1)NS(=O)(=O)c1ccc(F)cc1 [Compound 19a, (R)-2-(4-fluorophenylsulfonamido)-3-(4-hydroxyphenyl)propanoic acid]"
3,> 100 µM,"O=C(O)[C@H](Cc1ccc(O)cc1)NS(=O)(=O)c1ccccc1F [Compound 17b, (S)-2-(2-fluorophenylsulfonamido)-3-(4-hyroxyphenyl)propanoic acid]"
4,> 100 µM,"O=C(O)[C@H](Cc1ccccc1)NS(=O)(=O)c1ccc(F)cc1 [Compound 16b, (S)-2-(4-fluorophenylsulfonamido)-3-phenylpropanoic acid]"
5,> 100 µM,"O=C(O)[C@H](Cc1ccccc1)NS(=O)(=O)c1ccccc1F [Compound 14b, (S)-2-(2-fluorophenylsulfonamido)-3-phenylpropanoic acid]"
6,> 100 µM,"O=C(O)[C@@H](Cc1ccc(O)cc1)NS(=O)(=O)c1cccc(F)c1 [Compound 18a, (R)-2-(3-fluorophenylsulfonamido)-3-(4-hydroxyphenyl)propanoic acid]"
7,> 100 µM,"O=C(O)[C@@H](Cc1ccc(O)cc1)NS(=O)(=O)c1ccccc1F [Compound 17a, (R)-2-(2-fluorophenylsulfonamido)-3-(4-hydroxyphenyl)propanoic acid]"
8,> 100 µM,"O=C(O)[C@H](Cc1ccc(O)cc1)NS(=O)(=O)c1ccc(F)cc1 [Compound 19b, (S)-2-(4-fluorophenylsulfonamido)-3-(4-hydroxyphenyl)propanoic acid]"
9,> 100 µM,"O=C(O)[C@@H](Cc1ccccc1)NS(=O)(=O)c1ccc(F)cc1 [Compound 16a, (R)-2-(4-fluorophenylsulfonamido)-3-phenylpropanoic acid]"
10,> 100 µM,"O=C(O)[C@H](Cc1ccccc1)NS(=O)(=O)c1cccc(F)c1 [Compound 15b, (S)-2-(3-fluorophenylsulfonamido)-3-phenylpropanoic acid]"
11,> 100 µM,"O=C(O)[C@@H](Cc1ccccc1)NS(=O)(=O)c1ccccc1F [Compound 14a, (R)-2-(2-fluorophenylsulfonamido)-3-phenylpropanoic acid]"
